Test results: paper PMC5461819 (Peptides, 2015)
“And” between values parts separate entries of the source, which are not always exact repeats. Equal entries are not always repeated. Where two headings read alike, the source gives them in different places.

Tests used:
[1] = molecular target: T1, human BRS-3 (Homo sapiens, UniProt P32247); assay: [3H]Inositol phosphate generation; type: cell-based; conditions: for EC50: read-out: EC50 Human BRS-3 hBRS-3/BALB, [3H]IP production, 60 min, 37°C
T1 sequence (P32247 1-399): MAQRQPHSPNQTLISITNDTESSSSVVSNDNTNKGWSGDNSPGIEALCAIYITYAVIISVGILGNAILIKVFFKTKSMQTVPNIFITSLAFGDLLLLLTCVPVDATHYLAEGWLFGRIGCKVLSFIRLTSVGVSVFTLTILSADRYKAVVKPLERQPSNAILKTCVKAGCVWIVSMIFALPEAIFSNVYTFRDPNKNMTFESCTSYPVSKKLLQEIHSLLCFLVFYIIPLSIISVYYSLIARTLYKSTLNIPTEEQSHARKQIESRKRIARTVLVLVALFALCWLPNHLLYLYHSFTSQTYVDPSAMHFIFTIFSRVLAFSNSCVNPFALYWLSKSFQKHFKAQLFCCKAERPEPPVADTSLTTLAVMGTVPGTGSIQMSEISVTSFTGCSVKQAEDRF

[2] = molecular target: T2, rat NMBR (Rattus norvegicus, UniProt P24053); assay: [3H]Inositol phosphate generation, rNMBR/BALB cells; type: cell-based; conditions: read-out: EC50 Rat NMBR rNMBR/BALB; [3H]IP production, 60 min, 37°C
T2 sequence (P24053 1-390): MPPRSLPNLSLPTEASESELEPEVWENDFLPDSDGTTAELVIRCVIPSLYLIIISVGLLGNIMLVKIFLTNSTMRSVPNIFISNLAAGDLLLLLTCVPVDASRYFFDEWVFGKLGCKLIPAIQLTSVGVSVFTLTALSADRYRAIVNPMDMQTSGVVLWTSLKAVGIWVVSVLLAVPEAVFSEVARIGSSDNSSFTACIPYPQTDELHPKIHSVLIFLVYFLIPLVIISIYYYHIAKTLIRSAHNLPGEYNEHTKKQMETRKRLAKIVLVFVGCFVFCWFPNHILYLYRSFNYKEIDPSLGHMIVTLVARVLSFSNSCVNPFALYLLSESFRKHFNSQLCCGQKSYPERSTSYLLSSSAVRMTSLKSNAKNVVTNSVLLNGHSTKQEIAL

[3] = molecular target: rat GRPR (Rattus norvegicus, UniProt P52500); assay: [3H]Inositol phosphate generation, rGRPR/AR42J cells; type: cell-based; conditions: read-out: EC50 Rat GRPR rGRPR/AR42J; [3H]IP production, 60 min, 37°C
rat GRPR, sequence (P52500 whole entry): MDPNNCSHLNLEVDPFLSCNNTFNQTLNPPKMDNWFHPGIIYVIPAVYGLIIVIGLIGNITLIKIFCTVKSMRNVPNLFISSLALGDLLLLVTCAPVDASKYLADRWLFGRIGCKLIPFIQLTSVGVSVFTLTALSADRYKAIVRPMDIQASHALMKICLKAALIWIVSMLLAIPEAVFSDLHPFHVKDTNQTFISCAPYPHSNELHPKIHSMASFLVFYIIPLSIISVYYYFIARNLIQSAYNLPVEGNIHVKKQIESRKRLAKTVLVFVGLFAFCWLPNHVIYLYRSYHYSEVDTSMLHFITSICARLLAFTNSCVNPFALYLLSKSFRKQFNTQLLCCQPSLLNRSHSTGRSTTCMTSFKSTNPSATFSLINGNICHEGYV

[4] = molecular target: T3, rat BRS-3 (Rattus norvegicus, UniProt Q8K418); assay: [3H]Inositol phosphate generation, rBRS-3/BALB cells; type: cell-based; conditions: for EC50: read-out: EC50 Rat BRS-3 rBRS-3/BALB, [3H]IP production, 60 min, 37°C
T3 sequence (Q8K418 1-399): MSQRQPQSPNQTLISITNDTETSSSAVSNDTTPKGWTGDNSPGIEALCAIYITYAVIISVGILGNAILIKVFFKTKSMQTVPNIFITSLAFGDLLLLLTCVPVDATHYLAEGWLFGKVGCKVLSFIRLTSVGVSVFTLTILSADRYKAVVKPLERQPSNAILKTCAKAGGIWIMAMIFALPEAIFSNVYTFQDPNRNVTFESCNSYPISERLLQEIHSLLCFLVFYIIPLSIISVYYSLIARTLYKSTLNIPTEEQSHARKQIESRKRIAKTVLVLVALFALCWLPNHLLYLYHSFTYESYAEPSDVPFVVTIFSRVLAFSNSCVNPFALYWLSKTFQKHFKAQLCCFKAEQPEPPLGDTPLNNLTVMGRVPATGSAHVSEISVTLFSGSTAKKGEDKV

[5] = molecular target: human NMBR (Homo sapiens, UniProt P28336); assay: [3H]Inositol phosphate generation, hNMBR/BALB cells; type: cell-based; conditions: read-out: EC50 Human NMBR hNMBR/BALB; [3H]IP production, 60 min, 37°C
human NMBR, sequence (P28336 whole entry): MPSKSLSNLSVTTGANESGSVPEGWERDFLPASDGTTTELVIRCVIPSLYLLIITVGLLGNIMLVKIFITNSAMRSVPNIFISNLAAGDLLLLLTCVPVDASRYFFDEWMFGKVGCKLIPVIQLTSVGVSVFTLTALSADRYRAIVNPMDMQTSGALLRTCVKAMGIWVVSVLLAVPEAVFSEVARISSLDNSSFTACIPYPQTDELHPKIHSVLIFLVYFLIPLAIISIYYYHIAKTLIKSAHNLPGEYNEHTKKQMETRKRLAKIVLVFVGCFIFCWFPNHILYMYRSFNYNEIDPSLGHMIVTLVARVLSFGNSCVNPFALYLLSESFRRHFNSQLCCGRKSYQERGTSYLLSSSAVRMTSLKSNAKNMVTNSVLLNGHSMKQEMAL

[6] = molecular target: mouse GRPR (Mus musculus, UniProt P21729); assay: [3H]Inositol phosphate generation, mGRPR/BALB cells; type: cell-based; conditions: read-out: EC50 Mouse GRPR mGRPR/BALB; [3H]IP production, 60 min, 37°C
mouse GRPR, sequence (P21729 whole entry): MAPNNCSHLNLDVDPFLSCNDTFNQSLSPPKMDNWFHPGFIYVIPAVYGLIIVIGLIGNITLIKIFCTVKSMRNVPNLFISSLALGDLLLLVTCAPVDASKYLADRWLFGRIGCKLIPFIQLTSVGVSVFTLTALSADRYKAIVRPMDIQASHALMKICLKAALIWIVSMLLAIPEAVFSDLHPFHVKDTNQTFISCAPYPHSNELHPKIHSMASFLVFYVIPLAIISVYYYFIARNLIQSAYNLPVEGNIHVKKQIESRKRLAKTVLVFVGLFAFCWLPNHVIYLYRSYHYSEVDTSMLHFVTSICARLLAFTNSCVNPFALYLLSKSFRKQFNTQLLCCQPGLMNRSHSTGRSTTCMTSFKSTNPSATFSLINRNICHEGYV

[7] = molecular target: T4, mouse NMBR (Mus musculus, UniProt O54799); assay: [3H]Inositol phosphate generation, mNMBR/BALB cells; type: cell-based; conditions: read-out: EC50 Mouse NMBR mNMBR/BALB; [3H]IP production, 60 min, 37°C
T4 sequence (O54799 1-390): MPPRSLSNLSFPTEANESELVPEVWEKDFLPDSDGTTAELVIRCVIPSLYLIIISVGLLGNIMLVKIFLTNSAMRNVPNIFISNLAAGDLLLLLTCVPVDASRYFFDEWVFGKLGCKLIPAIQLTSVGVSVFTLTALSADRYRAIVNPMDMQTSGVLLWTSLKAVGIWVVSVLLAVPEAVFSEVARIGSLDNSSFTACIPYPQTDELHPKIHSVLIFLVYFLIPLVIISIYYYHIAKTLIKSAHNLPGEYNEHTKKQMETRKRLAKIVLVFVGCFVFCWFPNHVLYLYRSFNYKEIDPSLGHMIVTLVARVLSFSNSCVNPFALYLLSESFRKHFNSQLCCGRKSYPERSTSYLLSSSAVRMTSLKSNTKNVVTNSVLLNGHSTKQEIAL

[8] = molecular target: T1, human BRS-3; assay: Binding studies, inhibition of 125I-[D-Tyr6,β-Ala11,Phe13,Nle14]Bn-; conditions: hBRS-3/BALB cells
[9] = molecular target: human GRPR (Homo sapiens, UniProt P30550); assay: [3H]Inositol phosphate generation, hGRPR/BALB cells; type: cell-based; conditions: read-out: EC50 Human GRPR hGRPR/BALB; [3H]IP production, 60 min, 37°C
human GRPR, sequence (P30550 whole entry): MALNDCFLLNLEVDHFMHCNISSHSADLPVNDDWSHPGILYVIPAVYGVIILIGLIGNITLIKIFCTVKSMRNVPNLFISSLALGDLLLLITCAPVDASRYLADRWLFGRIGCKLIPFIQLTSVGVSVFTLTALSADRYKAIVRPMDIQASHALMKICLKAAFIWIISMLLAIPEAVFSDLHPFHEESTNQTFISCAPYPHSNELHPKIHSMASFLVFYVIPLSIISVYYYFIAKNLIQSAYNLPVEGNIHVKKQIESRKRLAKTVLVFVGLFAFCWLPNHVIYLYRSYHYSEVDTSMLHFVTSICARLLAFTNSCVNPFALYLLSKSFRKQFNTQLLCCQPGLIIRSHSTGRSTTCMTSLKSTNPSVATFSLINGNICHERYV

[10] = molecular target: T5, mouse BRS-3 (Mus musculus, UniProt O54798); assay: [3H]Inositol phosphate generation, mBRS-3/BALB cells; type: cell-based; conditions: for EC50: read-out: EC50 Mouse BRS-3 mBRS-3/BALB, [3H]IP production, 60 min, 37°C
T5 sequence (O54798 1-399): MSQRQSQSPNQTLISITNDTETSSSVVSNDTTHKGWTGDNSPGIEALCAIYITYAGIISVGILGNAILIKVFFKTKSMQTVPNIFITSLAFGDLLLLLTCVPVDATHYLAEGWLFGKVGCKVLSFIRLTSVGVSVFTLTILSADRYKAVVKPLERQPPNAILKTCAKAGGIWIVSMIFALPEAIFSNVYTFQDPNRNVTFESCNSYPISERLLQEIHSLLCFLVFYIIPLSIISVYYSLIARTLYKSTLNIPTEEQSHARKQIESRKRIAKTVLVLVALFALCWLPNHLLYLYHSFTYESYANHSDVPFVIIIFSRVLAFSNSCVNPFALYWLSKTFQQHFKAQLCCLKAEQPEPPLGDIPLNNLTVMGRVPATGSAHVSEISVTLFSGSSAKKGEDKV

With `Cc1ccc(Oc2cccc(CC(=O)N3CCNc4nc(C(F)(F)F)ccc4[C@H]3CC(=O)O)c2)cn1` [9F, [(5R)-4-((3-[(6-methylpyridin-3-yl)oxy]phenyl)acetyl)-8-(trifluoromethyl)-2,3,4,5-tetrahydro-1H-pyrido[2,3-e][1, 4]diazepin-5-yl]acetic acid] the “lower potency than 9G or 9D” value ([1]; hBRS-3/BALB cells) was 4.3 fold, the EC50 [1] was 39 nM and the EC50 ([1]; listed as 9 F) was 39.6 ± 1 nM. The EC50 [2] was over 3000 nM, the EC50 [3] was over 3000 nM and the “less potent than MK-5046” value ([4]; rBRS-3/BALB cells) was 8 fold. For the same compound, the “lower potency than 9G and 3F” value ([4]; rBRS-3/BALB cells) was 7.8 fold, the EC50 [4] was 295 ± 0.5 nM and the EC50 [5] was over 3000 nM. The EC50 [6] was over 3000 nM, the EC50 [7] was over 3000 nM and the “lower affinity compared with 9G” value [8] was 1.7-13 fold. For the same compound, the EC50 [9] was over 3000 nM, the “less potent than MK-5046” value ([10]; mBRS-3/BALB cells) was 5 fold and the “lower potency compared to 9D or 9G” value ([10]; mBRS-3/BALB cells) was 4.3 fold. It also gave an EC50 [10] of 86.8 ± 0.8 nM.
`CC(C)COc1cccc(CC(=O)N2CCNc3nc(C(F)(F)F)ccc3[C@H]2CC(=O)O)c1` [9G, [(5R)-4-([3-(2-methylpropoxy)phenyl]acetyl)-8-(trifluoromethyl)-2,3,4,5-tetrahydro-1H-pyrido[2,3-e][1, 4]diazepin-5-yl]acetic acid] was tested, and the “IC50/ EC50 hBRS-3/BALB” value ([1]; binding IC50 over [3H]IP EC50, hBRS-3/BALB cells, measure of receptor spareness) was 7.6, the EC50 [1] was 9 nM and the EC50 ([1]; listed as 9 G) was 9.2 ± 0.39 nM. The EC50 [2] was over 3000 nM, the EC50 [3] was over 3000 nM and the “less potent than MK-5046” value ([4]; rBRS-3/BALB cells) was 165 fold. For the same compound, the EC50 [4] was 37.9 ± 0.8 nM, the EC50 [5] was over 3000 nM and the EC50 [6] was over 3000 nM. The EC50 [7] was over 3000 nM, the “affinity greater than MK-5046” value [8] was 1.5 fold and the EC50 [9] was over 3000 nM. For the same compound, the “less potent than MK-5046” value ([10]; mBRS-3/BALB cells) was 3.5–3.8 fold and 4 fold and the EC50 [10] was 20.1 ± 0.9 nM.
